# Measurements reported in ChEMBL document CHEMBL5233258, “Recent developments of gallic acid derivatives and their hybrids in medicinal chemistry: A review” (Eur J Med Chem, 2020).
# How the values were obtained:
# Escherichia coli = experiment: Antibacterial activity against Escherichia coli assessed as zone of inhibition incubated for 24 hrs by agar diffusion method; assay type: functional; further: test concentration or dose not given here
# Pseudomonas aeruginosa = experiment: Antibacterial activity against Pseudomonas aeruginosa assessed as zone of inhibition incubated for 24 hrs by agar diffusion method; assay type: functional; further: test concentration or dose not given here
# [1] = Antioxidant activity assessed as DPPH radical scavenging activity measured after 30 mins; assay type: functional
# [2] = Antioxidant activity assessed as DPPH radical scavenging activity measured after 30 mins by spectrophotometric analysis; assay type: functional
# Bacillus subtilis [3] = experiment: Antibacterial activity against Bacillus subtilis ATCC 6633 by Mueller-Hinton broth method; assay type: functional
# Bacillus subtilis [4] = experiment: Bactericidal activity against Bacillus subtilis ATCC 6633 by Mueller-Hinton broth method; assay type: functional
# HeLa = experiment: Anticancer activity against human HeLa cells assessed as inhibition of cell growth incubated for 24 hrs by MTT assay; assay type: functional, cell-based
# HepG2 = experiment: Cytotoxicity against human HepG2 cells by MTT assay; assay type: functional, cell-based
# HCT-116 [5] = experiment: Cytotoxicity against human HCT-116 cells by MTT assay; assay type: functional, cell-based
# MCF7 [6] = experiment: Anticancer activity against human MCF7 cells assessed as inhibition of cell growth incubated for 24 hrs by MTT assay; assay type: functional, cell-based; conditions: MCF7, 24 h
# [7] = Inhibition of recombinant HIV-1 integrase using V1/V2 as substrate assessed as 3'-end processing of the substrate incubated for 1 hrs; set-up: species or system Human immunodeficiency virus 1
# HCT-116 [8] = experiment: Cytotoxicity against human HCT-116 cells assessed as reduction in cell viability incubated for 72 hrs by MTT assay; assay type: functional, cell-based; conditions: HCT-116, 72 h
# MCF7 [9] = experiment: Cytotoxicity against human MCF7 cells assessed as reduction in cell viability incubated for 72 hrs by MTT assay; assay type: functional, cell-based; conditions: MCF7, 72 h
# Rattus norvegicus = species on record: Rattus norvegicus; experiment: Inhibition of tert-butylhydroperoxide induced lipid peroxidation in rat liver microsomes; assay type: functional, Microsome
# HCT-116 [10] = experiment: Anticancer activity against human HCT-116 cells assessed as inhibition of cell growth incubated for 24 hrs by MTT assay; assay type: functional, cell-based; conditions: HCT-116, 24 h
# [11] = Antioxidant activity in DOPC loaded liposomes by DPPH scavenging assay; assay type: physicochemical
# [12] = Antioxidant activity in ethanol solution by DPPH scavenging assay; assay type: functional
# Human alphaherpesvirus 2 = experiment: Antiviral activity against Herpes simplex viruses type 2 MS infected in Monkey BGM cells; assay type: functional, organism-based; conditions: Human alphaherpesvirus 2, MS
# Plasmodium falciparum = experiment: Antimalarial activity against Plasmodium falciparum; assay type: functional, organism-based
# [13] = tested on: Mycobacterium tuberculosis; experiment: Antitubercular activity against Mycobacterium tuberculosis H37 Rv ATCC 27294 incubated for 7 days by Alamar blue assay; assay type: functional; conditions: H37 Rv ATCC 27294, 168 h, time 7 day
structure (smiles),measurement,setting,value
COc1cc(C(=O)N/N=C/c2ccc(-c3ccccn3)cc2)cc(OC)c1OC,inhibition zone (IZ),Escherichia coli,17 mm
same,inhibition zone (IZ),Pseudomonas aeruginosa,17 mm
COc1ccc(O)c(/C(C)=N\NC(=O)c2cc(O)c(O)c(O)c2)c1,IC50,[1],1.14 µg/mL
CCCCCCCCCCCC[N+](C)(C)CCOCCO,IC50,[2],4820 µM
same,MIC,Bacillus subtilis [3],2400 µM
same,MBC,Bacillus subtilis [4],2400 µM
COc1cc(C(=O)NN=Cc2nc(-c3ccccc3)c[nH]2)cc(OC)c1OC,inhibition zone (IZ),Escherichia coli,17 mm
same,inhibition zone (IZ),Pseudomonas aeruginosa,17 mm
N#Cc1c(NC(=O)c2cc(O)c(O)c(O)c2)sc2c1CCC2,IC50,HeLa,59.4 µg/mL
CC(=O)O[C@H]1C(=O)[C@@]2(C)[C@H]([C@H](OC(=O)c3ccccc3)[C@]3(O)C[C@H](OC(=O)[C@H](O)[C@@H](NC(=O)c4ccccc4)c4ccccc4)C(C)=C1C3(C)C)[C@]1(OC(C)=O)CO[C@@H]1C[C@@H]2O [PACLITAXEL],IC50,HepG2,0.66 µg/mL
same,IC50,HCT-116 [5],0.915 µg/mL
same,IC50,MCF7 [6],0.0025 µM
O=C(OC[C@]1(O)C[C@@H](O)[C@@H](O)[C@H](OC(=O)c2cc(O)c(O)c(O)c2)C1)c1cc(O)c(O)c(O)c1,IC50,[7],2.79 µM
CC/C(=C(\c1ccccc1)c1ccc(OCCN(C)C)cc1)c1ccccc1 [TAMOXIFEN],IC50,MCF7 [6],9 µM
C/C(=N/NC(=O)c1cc(O)c(O)c(O)c1)c1ccccn1,IC50,[1],1.14 µg/mL
O=C(N/N=C/c1c[nH]c2ccc(Cl)cc12)c1cc(O)c(O)c(O)c1,IC50,HCT-116 [8],19.2 µM
same,IC50,[2],189 µM
same,IC50,MCF7 [9],6.7 µM
C/C(=N/NC(=O)c1cc(O)c(O)c(O)c1)c1cc(Cl)ccc1O,IC50,[1],1.14 µg/mL
O=c1c(O[C@@H]2O[C@H](CO)[C@@H](O)[C@H](O)[C@H]2O)c(-c2ccc(O)c(O)c2)oc2cc(O)cc(O)c12 [ISOQUERCETIN],IC50,Rattus norvegicus,972 µM
CCCCCCCCCC[N+](C)(C)CCO,MIC,Bacillus subtilis [3],1200 µM
same,MBC,Bacillus subtilis [4],1200 µM
COc1cc([C@@H]2c3cc4c(cc3[C@H](O)[C@H]3COC(=O)[C@H]23)OCO4)cc(OC)c1OC [PODOFILOX],IC50,MCF7 [6],65 µM
O=C(N/N=C/c1c[nH]c2ccc(Br)cc12)c1cc(O)c(O)c(O)c1,IC50,HCT-116 [8],13.3 µM
same,IC50,[2],172 µM
same,IC50,MCF7 [9],6.7 µM
O=C(O)c1cc(O)c(O)c(O)c1 [GALLIC ACID],IC50,HeLa,26.3 µg/mL
same,IC50,HCT-116 [10],41.8 µg/mL
COC(=O)c1cc(O)c(O)c(O)c1 [GALLIC ACID METHYL ESTER],IC50,[11],8.41 µM
same,IC50,[12],7.2 µM
same,IC50,Human alphaherpesvirus 2,0.224 µM
same,IC50,Plasmodium falciparum,30 µM
O=C(O[C@@H]1C[C@H](O)C[C@@H](O)[C@H]1O)c1cc(O)c(O)c(O)c1,IC50,[7],0.71 µM
O=C(NN1C(=O)CSC1c1ccccc1Cl)c1cc(O)c(O)c(O)c1 (stereo unspecified),MIC,[13],0.79 µg/mL
O=C(O[C@@H]1C[C@@H](O)[C@@H](O)[C@H](OC(=O)c2cc(O)c(O)c(O)c2)C1)c1cc(O)c(O)c(O)c1,IC50,[7],0.33 µM
COc1ccc(/C=C\c2cc(OC)c(OC)c(OC)c2)cc1O [COMBRETASTATIN A4],IC50,MCF7 [6],0.01 µM
COc1cc(/C=C\c2cc3c(cc2OC(C)=O)CC[C@@H]2[C@@H]3CC[C@]3(C)[C@@H](OC(C)=O)CC[C@@H]23)cc(OC)c1OC,IC50,MCF7 [6],7.5 µM
CC1(C)S[C@@H]2[C@H](NC(=O)[C@H](N)c3ccccc3)C(=O)N2[C@H]1C(=O)O [AMPICILLIN],inhibition zone (IZ),Escherichia coli,15 mm
same,inhibition zone (IZ),Pseudomonas aeruginosa,15 mm
COc1cc(C(=O)N/N=C/c2cc3ccccc3[nH]2)cc(OC)c1OC,inhibition zone (IZ),Escherichia coli,17 mm
same,inhibition zone (IZ),Pseudomonas aeruginosa,17 mm
